Laboratory results as given in PMC12332667, “Role of Structural Modifications in Peptidomimetic Compounds as Potential Antimicrobial Agents against Staphylococcus aureus and Streptococcus pyogenes: Balancing Bioavailability, Safety, and Antimicrobial Activity” (ACS Omega, 2025).
Values after ≈ are worked out from the molar mass of the structure shown. Values joined by “and” are separate entries in the source; they are usually repeats but may differ in a detail not shown here. Identical values can stand only once. Residues, ends and D or L forms follow the SMILES beside them.

Experiments:
[1] = test system: immortalized human HaCaT keratinocytes; test: XTT cell proliferation assay, keratinocytes; type: cell-based; conditions: for effect on proliferation, in words: 48 and 72 h, 0.01–150 μg/mL
Summary of the method: (§1)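 Cells at 37 °C, 5% CO2 received peptidomimetics in serum-free HG-DMEM for 48 or 72 h; for 72 h, half the medium was renewed and peptide re-added at 48 h. XTT reagent was then incubated 4 h and absorbance read at 490 nm; Mann–Whitney U test, p ≤ 0.05.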

S. aureus ATCC 43300 = test: MIC/MBC broth microdilution, S. aureus; type: cell-based, Staphylococcus aureus; conditions: S. aureus
S. mutans c.i. = test: MIC/MBC broth microdilution, S. mutans; type: cell-based, Streptococcus mutans
Summary of the method: (§2)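 Broth microdilution per NCCLS in BHI, ~10^5 CFU/mL inoculum, serially diluted peptidomimetics (stock 1024 μg/mL in water with 5–10% ethanol or DMSO), 18 h at 37 °C. MIC: lowest concentration with no obvious growth (≥90% of untreated); MBC: ≤3 colonies, ≥99.9% kill.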

[2] = test system: human dermal fibroblast cell line (46BR.1N); test: XTT cell proliferation assay, fibroblasts; type: cell-based; conditions: for effect on proliferation, in words: 48 and 72 h, 0.01–150 μg/mL
Summary of the method: as §1

P. vulgaris ATCC 6896 = test: MIC/MBC broth microdilution, P. vulgaris; type: cell-based, Proteus vulgaris
Summary of the method: as §2

S. schleiferi c.i. = test: MIC/MBC broth microdilution, S. schleiferi; type: cell-based, Staphylococcus schleiferi
Summary of the method: as §2

[3] = test system: immortalized human keratinocytes (HaCaT); test: LDH cytotoxicity test, keratinocytes; type: cell-based; conditions: for cytotoxicity (LDH), in words / concentration at which cytotoxic effect starts: 48 h; for cytotoxicity (LDH), in words: 50-150 μg/mL; for concentration at which cytotoxic effect starts: LDH
Summary of the method: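 HaCaT keratinocytes and 46BR.1N fibroblasts, 5000 cells per well, grown 24 h, then exposed to peptidomimetics at 50, 100 and 150 μg/mL in serum-free medium for 48 h. LDH release in supernatant read at 450 nm, normalized to untreated (0%) and 1% Triton X-100 (maximal) controls.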

[4] = test system: K. pneumoniae ATCC 700603; test: MIC/MBC broth microdilution, K. pneumoniae; type: cell-based
Summary of the method: as §2

[5] = Stability / presence in human plasma; type: in vitro ADME; conditions: 24 h incubation at 37 °C
Protocol: Blood was drawn from healthy volunteers, and lithium/heparin holding tubes were used to remove the clot by centrifugation. The plasma was aliquoted in sterile conditions and incubated with the desired compounds for 24 h at 37 °C. The samples were prepared under sterile conditions following the previously described protocol. The samples were collected at six time points (0, 1, 2, 3, 6, and 24 h) for determining stability in water solutions, and time points of 0, 10, 20, 30, 40, 50, and 60 min, as well as of 2, 3, 6, and 24 h, for determining stability in human plasma. The analysis was performed by HPLC using a Kromasil C8 column (5 μm, 90 Å, 1.0 mm × 250 mm) monitored by a PDA or ELDS-LT II detector. For quantification, peak areas were compared to a calibration curve calculated by Shimadzu LCsolution Software (Kyoto, Japan). Graphs were prepared in GraphPad Prism (Boston, USA).

[6] = up to 150 μg/mL, A-193 and A-179 after 48 h
[7] = A-196 0.01–10 μg/mL, A-219 above 0.1 μg/mL, A-213 lower concentrations

SMILES	effect on proliferation, in words ([1]; XTT)	MBC (S. aureus ATCC 43300; H2O) [µg/mL]	MIC (S. aureus ATCC 43300; H2O) [µg/mL]	MIC (S. aureus ATCC 43300; water additive DMSO) [µg/mL]	MBC (S. aureus ATCC 43300; water additive EtOH) [µg/mL]	MIC (S. aureus ATCC 43300; water additive EtOH) [µg/mL]	MIC (S. mutans c.i.; H2O) [µg/mL]	MIC (S. mutans c.i.; water additive DMSO) [µg/mL]	MIC (S. mutans c.i.; water additive EtOH) [µg/mL]	effect on proliferation, in words ([2]; XTT)	MIC (P. vulgaris ATCC 6896; H2O) [µg/mL]	MIC (P. vulgaris ATCC 6896; water additive DMSO) [µg/mL]	MIC (P. vulgaris ATCC 6896; water additive EtOH) [µg/mL]	MIC (S. schleiferi c.i.; H2O) [µg/mL]	MIC (S. schleiferi c.i.; water additive DMSO) [µg/mL]	MIC (S. schleiferi c.i.; water additive EtOH) [µg/mL]	cytotoxicity (LDH), in words [3]	MIC ([4]; H2O) [µg/mL]	MIC ([4]; water additive DMSO) [µg/mL]	MIC ([4]; water additive EtOH) [µg/mL]	also measured
CC(C)[C@@H](CNC(=O)C(=Cc1ccccc1)c1ccccc1)NC(=O)[C@H](CCCNC(=N)N)NC(=O)[C@H](CCCCNC(=N)N)NC(=O)OCc1ccccc1 [Compound A-192]	negative impact	4 (≈ 5.2 µM)	4 (≈ 5.2 µM)	16 (≈ 20.8 µM)	16 (≈ 20.8 µM)	16 (≈ 20.8 µM)	> 512	> 512	> 512	negative impact	> 512	> 512	> 512	256 (≈ 333 µM)	256 (≈ 333 µM)	256 (≈ 333 µM)	high cytotoxicity toward keratinocytes	> 512	> 512	> 512	proliferation relative to control at 100 and 150 μg/mL ([1]; XTT): 25%; proliferation relative to control at 50 μg/mL ([1]; XTT, 50 μg/mL): 50%; MBC (S. aureus ATCC 43300; water additive DMSO): 16 µg/mL (≈ 20.8 µM); proliferation relative to control at 100 and 150 μg/mL ([2]; XTT): 25%; proliferation relative to control at 50 μg/mL ([2]; XTT, 50 μg/mL): 50%; MBC (S. schleiferi c.i.; H2O): 256 µg/mL (≈ 333 µM); MBC (S. schleiferi c.i.; water additive DMSO): 256 µg/mL (≈ 333 µM); MBC (S. schleiferi c.i.; water additive EtOH): 256 µg/mL (≈ 333 µM)
CC(C)[C@@H](CNC(=O)C(=Cc1ccccc1)c1ccccc1)NC(=O)[C@H](Cc1c[nH]cn1)NC(=O)[C@H](CCCCNC(=N)N)NC(=O)OCc1ccccc1 [Compound A-193]		32 (≈ 42.7 µM)	32 (≈ 42.7 µM)	32 (≈ 42.7 µM)	32 (≈ 42.7 µM)	32 (≈ 42.7 µM)		8 (≈ 10.7 µM)	8 (≈ 10.7 µM)		> 512	> 512	> 512	8 (≈ 10.7 µM)	4 (≈ 5.33 µM)	8 (≈ 10.7 µM)	cytotoxic only at a concentration of 150 μg/mL	> 512	> 512	> 512	antiproliferative effect (decrease vs control) [1, 6]: over 50%; MBC (S. aureus ATCC 43300; water additive DMSO): 32 µg/mL (≈ 42.7 µM); MBC (S. mutans c.i.; water additive DMSO): 16 µg/mL (≈ 21.3 µM); MBC (S. mutans c.i.; water additive EtOH): 16 µg/mL (≈ 21.3 µM); antiproliferative effect (decrease vs control) [2, 6]: over 50%; MBC (S. schleiferi c.i.; H2O): 32 µg/mL (≈ 42.7 µM); MBC (S. schleiferi c.i.; water additive DMSO): 8 µg/mL (≈ 10.7 µM); MBC (S. schleiferi c.i.; water additive EtOH): 32 µg/mL (≈ 42.7 µM); concentration at which cytotoxic effect starts [3]: 150 µg/mL
CC(C)[C@H](NC(=O)[C@H](Cc1c[nH]cn1)NC(=O)[C@H](CCCNC(=N)N)NC(=O)OCc1ccccc1)C(=O)NCCc1ccccc1 [Compound A-219] (HELM PEPTIDE1{[O=C(OCc1ccccc1)[*:2]].R.H.V.[c1ccc(CCN[*:1])cc1]}$$$$V2.0)	best pro-proliferative effect		> 512	> 512		> 512	> 512	> 512	> 512	best pro-proliferative effect	> 512	> 512	> 512	> 512	> 512	> 512	no adverse effects	> 512	> 512	> 512	pro-proliferative effect above control [1, 7]: around 20%; pro-proliferative effect above control [2, 7]: around 20%; present in human plasma [5]: 85–90%
CC(C)[C@H](NC(=O)[C@H](Cc1c[nH]cn1)NC(=O)[C@H](CCCCN)NC(=O)OCc1ccccc1)C(=O)NCCc1ccccc1 [Compound A-220] (HELM PEPTIDE1{[O=C(OCc1ccccc1)[*:2]].K.H.V.[c1ccc(CCN[*:1])cc1]}$$$$V2.0)	did not exert any negative impact	512 (≈ 826 µM)	512 (≈ 826 µM)	512 (≈ 826 µM)	512 (≈ 826 µM)	512 (≈ 826 µM)	256 (≈ 413 µM)	> 512	> 512	did not exert any negative impact	> 512	> 512	> 512	> 512	> 512	> 512		> 512	> 512	> 512	MBC (S. aureus ATCC 43300; water additive DMSO): 512 µg/mL (≈ 826 µM); MBC (S. mutans c.i.; H2O): 512 µg/mL (≈ 826 µM); present in human plasma [5]: 85–90%; cytotoxicity (LDH) ([3]; 48 h, 50, 100 and 150 μg/mL, vs 1% Triton X-100): 10–15% and 10%; concentration at which cytotoxic effect starts [3]: > 150 µg/mL
CC(C)[C@H](NC(=O)[C@H](CCCNC(=N)N)NC(=O)[C@H](CCCNC(=N)N)NC(=O)OCc1ccccc1)C(=O)NCCc1ccccc1 [Compound A-221] (HELM PEPTIDE1{[O=C(OCc1ccccc1)[*:2]].R.R.V.[c1ccc(CCN[*:1])cc1]}$$$$V2.0)	pro-proliferating effect at lower concentrations followed by an antiproliferative effect at higher concentrations	512 (≈ 768 µM)	512 (≈ 768 µM)	> 512	512 (≈ 768 µM)	256 (≈ 384 µM)	> 512	> 512	> 512	pro-proliferating effect at lower concentrations followed by an antiproliferative effect at higher concentrations	> 512	> 512	> 512	> 512	> 512	> 512	no adverse effects	> 512	> 512	> 512	present in human plasma [5]: 85–90%
